From the METLIN SMRT retention time set (Domingo-Almenara et al. 2019)

Experiment: gradient 5% acetonitrile 3 min, to 50% in 2 min, to 85% in 15 min, held 3 min, 100 µL/min
Settings: column: Zorbax Extend-C18 2.1 x 50 mm; eluents: water / acetonitrile, 0.1% formic acid
Procedure, shortened: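 Retention times come from adduct peaks that were picked computationally and then checked by hand. The standards, pure and pooled in mixtures of ~100 molecules, were run on a Zorbax Extend-C18 column (2.1 × 50 mm, 1.8 μm) at 100 μL/min with water and acetonitrile, each with 0.1% formic acid. Detection was by quadrupole time-of-flight mass spectrometry in positive and negative ionization mode, with a dead volume of 40 μL and a dwell volume of 900 μL.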

Compound	RP-LC retention time
Cc1ccc(Nc2c(-c3ccc([N+](=O)[O-])cc3)nc3ccc(C)cn23)cc1	838 s
Cc1ccc(Sc2nccnc2N2CCC(C(=O)N3CCN(c4ccccc4C)CC3)CC2)cc1	1330 s
C[C@H]1CNCCc2ccc(Cl)cc21	652 s
CCOc1ccc(NC(=O)C2CCN(S(=O)(=O)c3cn(C)cn3)CC2)cc1	699 s
Cc1ccc(CNC(=O)C2(C)CCCN(C(=O)c3cccc(Br)c3)C2)cc1 (stereo not given)	960 s
Cc1cc(C)c(S(=O)(=O)N2CCCCC2)c(C)c1[N+](=O)[O-]	1040 s
COCCCNC(=O)C1CCN(c2nnc(-c3ccccc3)o2)CC1	659 s
O=C(NCCn1ncccc1=O)NCc1ccccc1	578 s
Cc1cc(NC(=O)C(=O)c2c[nH]c3ccccc23)ccc1Br	1120 s
COC(=O)C1=CN(c2ccc(N(C)C)cc2)c2ccccc2S1(=O)=O	883 s
CCOCCCNC(=O)C1(C)Cn2c(ccc2-c2ccco2)C(=O)N1c1ccc(OC)c(OC)c1 (stereo not given)	752 s
COc1cc(Cl)ccc1C(=O)Nc1cc(S(=O)(=O)N2CCSCC2)sc1C	1090 s
CN(CCc1noc(-c2ccc(F)cc2)n1)C(=O)COc1ccc(F)cc1	889 s
Cn1c(=O)n(C)c2cc(S(=O)(=O)C3CCCCC3)c(NC(=O)c3ccccc3)cc21	982 s
COc1ccc(Br)cc1CNC(=O)CCC(=O)N1CCSc2nc(C)cc(C)c21	725 s
CCc1noc(C2CCCCN2C(=O)CCc2c[nH]c3ccccc23)n1 (stereo not given)	888 s
CCc1nc2c(c(=O)n1CC(=O)NC(C)(C)C)CN(Cc1ccccc1)CC2	605 s
O=C(Cn1ccn2nc(-c3ccccc3)c(CO)c2c1=O)Nc1ccc2c(c1)OCO2	1030 s
Cc1cc2c(c(=O)n(-c3ccc(F)cc3)c(=O)n2CC(=O)Nc2cccc(F)c2)n1C	840 s
Cc1nn(-c2ccccc2)c2c1N(CC(=O)NC(C)c1ccccc1)C(=O)CS2 (stereo not given)	845 s
CCC(=O)N1CCc2cc(N3CC(C(=O)NCc4ccc(F)cc4F)CC3=O)ccc21 (stereo not given)	755 s

Compound	RP-LC retention time
Cc1ccc(CNC(=O)CN2C(=O)C3CCCCN3c3ccc(S(=O)(=O)N(C)C)cc32)o1 (stereo not given)	867 s
CCOC(=O)c1c(NCCc2cccs2)c2ccc(Cl)cc2[nH]c1=O	821 s
Cc1ccc(C(=O)N2CCN(c3cc(-c4cccs4)[nH]n3)CC2)c(C)c1	831 s
CCc1cccc(NS(=O)(=O)c2cc3n(c2)CCCNC3=O)c1	690 s
O=C(c1cccnc1)c1cc(-c2ccccn2)c(=O)n2ccccc12	630 s
CCc1ccc(C(C)NC(=O)c2cccc(C3CCCN(C(=O)NC(C)C)C3)c2)cc1 (stereo not given)	1010 s
CCOC(=O)c1c(C)[nH]c(C(=O)N2CCC(CC(=O)NC3CCCCCC3)CC2)c1C	835 s
CNC(=O)C1CCCN(c2nc3ncn(CC(=O)NCc4ccc5c(c4)OCO5)c(=O)c3s2)C1 (stereo not given)	618 s
Cc1ccccc1CC(=O)NCc1ccc2c(c1)ncn2C(C)C	618 s
CNC(=O)c1cc(-c2cccc(F)c2)nc2ccccc12	850 s
COc1ccccc1CNc1ccc(-c2nc(-c3ccc(F)cc3)no2)cn1	1220 s
O=C(Cn1cnc2nc3c(cc2c1=O)CCCC3)Nc1ccc(Cl)cc1	761 s
CN1CCN(Cc2nn(C)c3c2CN(S(=O)(=O)c2ccccc2Cl)CC3)CC1	615 s
COCCn1c(SCc2nc(-c3ccc(Cl)cc3)no2)nc2cc3c(cc2c1=O)OCO3	1180 s
Cn1cc(CN2CCC(C(=O)NCCCN3CCc4ccccc4C3)CC2)c2cc(Cl)ccc21	878 s
O=C(CN1CCCc2nc(C3CC3)ncc2C1=O)NC1CCCC1	673 s
COc1cc(CNC(=O)c2cc(C(C)(C)C)n3nccc3n2)cc(OC)c1	1110 s
Cc1cc2nc(C(=O)Nc3cccc(F)c3)cc(C)n2n1	970 s
CC(C)CC(=O)N1CCN(c2ccc(=O)n(-c3ccc(Cl)cc3)n2)CC1	809 s
Cc1cc(=O)n(CC(=O)Nc2cccc(F)c2)c(N2CCOCC2)n1	666 s

The remaining lines, values ahead:

RP-LC retention time	Compound
949 s	C[C@H](NC(=O)Cc1cc(F)cc(F)c1)C(=O)N[C@@H]1C(=O)N(C)c2ccccc2-c2ccccc21
794 s	Cc1cccc(NC(=O)Nc2nc(C(=O)NCc3cccs3)cs2)c1
883 s	Cc1ccc(CNC(=O)c2ccc3c(c2)N(C(=O)c2ccc(F)cc2)CC3)o1
738 s	CC(C)NC(=O)C1CCCN(c2nc3ncn(CC(=O)Nc4cccc(Cl)c4)c(=O)c3s2)C1 (stereo not given)
686 s	CCOc1ccc(-n2cc(C(=O)O)nn2)cc1
754 s	O=C(NC1CCCCCCC1)c1nnc(-c2ccc(S(=O)(=O)N3CCCCC3)cc2)o1
706 s	CCOC(=O)c1coc(NC(=O)Nc2cccs2)n1
776 s	Cc1cn(-c2cc(NC(=O)c3ccc(C)c(Nc4nccc(-c5cccnc5)n4)c3)cc(C(F)(F)F)c2)cn1
1140 s	CCN1C(=O)COc2ccc(-c3noc(C4(c5ccc(OC)cc5)CC4)n3)cc21
1040 s	Cc1ccc(-c2noc(C3CCCN3C(=O)C3CC(=O)N(c4cccc(Cl)c4)C3)n2)cc1 (stereo not given)
1000 s	Cc1ccc(C(C)C)c(OCC(=O)Nc2ccc(S(=O)(=O)Nc3cc(C)on3)cc2)c1
751 s	Cc1cc(S(=O)(=O)N2CCC(n3cnnc3C(C)C)CC2)ccc1F
927 s	CCCOc1ccccc1C(=O)N(Cc1ccc(Br)o1)C1CCS(=O)(=O)C1 (stereo not given)
745 s	CC(C)n1cnc(S(=O)(=O)N2CCC(C(=O)NCCc3ccccc3)CC2)c1
1200 s	CCOc1ccc(-c2cc3c(=O)n(Cc4nc(-c5cccc(Br)c5)no4)ccn3n2)cc1
1180 s	c1ccc(-c2cc(NCc3ccccn3)n3ncc(-c4ccccc4)c3n2)cc1
1250 s	Cc1ccc(-c2cc3c(=O)n(Cc4nc(-c5ccccc5Br)no4)ncn3n2)c(C)c1
702 s	O=C(NCCOc1ccc(F)cc1)C1CCCN(c2ccc(-c3cccs3)nn2)C1 (stereo not given)
1000 s	Cc1cccc(-c2noc(-c3nnn(Cc4nc(-c5cccc(Cl)c5)oc4C)c3C)n2)c1
905 s	CC1CCC(Nc2c(-c3cccc(F)c3)nc3ncccn23)CC1 (stereo not given)
1050 s	CC(C)(C)c1noc(-c2ccc(-n3cnc(C(=O)NCc4ccccc4F)c3)nc2)n1
716 s	CC(=O)N1CCN(c2nccc(-n3nc(C)cc3C)n2)CC1
847 s	COc1cccc(N2CCN(c3ccc(S(=O)(=O)C(C)C)nn3)CC2)c1
696 s	CC(C)n1cc2cc(C(=O)N3CCN(Cc4ccc5c(c4)OCO5)CC3)sc2c1
